{
  "source": "patent US12162861B2",
  "about": "“Dopamine D3 receptor selective antagonists/partial agonists; method of making; and use thereof” (THE UNITED STATES OF AMERICA, AS REPRESENTED BY THE …, priority 2016, dated 2024)",
  "key": {"[1]": {"target": "T1, human D2R (Homo sapiens, UniProt P14416)", "T1 construct": "expressed in transfected cells; host or cells: HEK293", "T1 sequence (P14416 whole entry)": "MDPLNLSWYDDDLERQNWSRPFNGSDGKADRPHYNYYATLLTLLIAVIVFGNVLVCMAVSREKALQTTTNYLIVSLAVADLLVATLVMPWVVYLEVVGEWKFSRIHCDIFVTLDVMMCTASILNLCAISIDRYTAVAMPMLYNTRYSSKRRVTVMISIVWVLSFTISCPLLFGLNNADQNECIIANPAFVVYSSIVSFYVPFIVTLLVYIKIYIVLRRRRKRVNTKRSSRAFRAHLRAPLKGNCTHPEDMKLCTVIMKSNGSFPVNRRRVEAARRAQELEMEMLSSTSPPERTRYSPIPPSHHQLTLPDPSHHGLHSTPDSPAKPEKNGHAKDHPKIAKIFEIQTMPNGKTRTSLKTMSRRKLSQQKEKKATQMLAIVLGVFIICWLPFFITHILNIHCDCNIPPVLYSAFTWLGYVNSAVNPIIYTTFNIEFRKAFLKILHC", "experiment": "Radioligand competition binding, [3H]N-methylspiperone, D2R", "conditions": "Table 1A; HEK 293 cells transfected with hD2LR, [3H]N-methylspiperone; read-out: D2R K ± SEM", "description": "Binding at dopamine D2-like receptors was determined using previously described methods. (Chen et al. “Tranylcypromine substituted cis-hydroxycyclobutylnaphthamides as potent and selective dopamine D(3) receptor antagonists.” J. Med. Chem. 2014, 57, 4962-4968) Membranes were prepared from HEK293 cells expressing human D2R, D3R or D4R, grown in a 50:50 mix of DMEM and Ham's F12 culture media, supplemented with 20 mM HEPES, 2 mM L-glutamine, 0.1 mM non-essential amino acids, 1× antibiotic/antimycotic, 10% heat-inactivated fetal bovine serum, and 200 μg/mL hygromycin (Life Technologies, Grand Island, NY) and kept in an incubator at 37° C. and 5% CO2. Upon reaching 80-90% confluence, cells were harvested using pre-mixed Earle's Balanced Salt Solution (EBSS) with 5 μM EDTA (Life Technologies) and centrifuged at 3000 rpm for 10 min at 21° C. The supernatant was removed and the pellet was resuspended in 10 mL hypotonic lysis buffer (5 mM MgCl2·6H2O, 5 mM Tris, pH 7.4 at 4° C.) and centrifuged at 20,000 rpm for 30 min at 4° C. The pellet was then resuspended in fresh EBSS buffer made from 8.7 g/L Earle's Balanced Salts without phenol red (US Biological, Salem, MA), 2.2 g/L sodium bicarbonate, pH to 7.4. A Bradford protein assay (Bio-Rad, Hercules, CA) was used to determine the protein concentration and membranes were diluted to 500 μg/mL and stored in a −80° C. freezer for later use.\nRadioligand competition binding experiments were conducted using thawed membranes. Test compounds were freshly dissolved in 30% DMSO and 70% H2O to a stock concentration of 100 μM. To assist the solubilization of free-base compounds, 10 μl of glacial acetic acid was added along with the DMSO. Each test compound was then diluted into 13 half-log serial dilutions using 30% DMSO vehicle; final test concentrations ranged from 10 μM to 10 pM. Previously frozen membranes were diluted in fresh EBSS to a 100 μg/mL (for hD2R or hD3R) or 200 μg/mL (hD4R) stock for binding. Radioligand competition experiments were conducted in glass tubes containing 300 μl fresh EBSS buffer with 0.2 mM sodium metabisulfite, 50 μl of diluted test compound, 100 μl of membranes (10 μg total protein for hD2R or hD3R, 20 μg total protein for hD4R), and 50 μl of [^3H]N-methylspiperone (0.4 nM final concentration; Perkin Elmer). Nonspecific binding was determined using 10 μM butaclamol (Sigma-Aldrich, St. Louis, MO) and total binding was determined with 30% DMSO vehicle. All compound dilutions were tested in triplicate and the reaction incubated for one hour at room temperature. The reaction was terminated by filtration through Whatman GF/B filters, presoaked for one hour in 0.5% polyethylenimine, using a Brandel R48 filtering manifold (Brandel Instruments, Gaithersburg, MD). The filters were washed 3 times with 3 mL of ice cold EBSS buffer and transferred to scintillation vials. 3 mL CytoScint liquid scintillation cocktail (MP Biomedicals, Solon, OH) was added and vials were counted using a Perkin Elmer Tri-Carb 2910 TR liquid scintillation counter (Waltham, MA). IC50 values for each compound were determined from dose-response curves and Ki values were calculated using the Cheng-Prusoff equation; these analyses were performed using GraphPad Prism version 5.00 for Windows (GraphPad Software, San Diego, CA). Reported Ki values were determined from least three independent experiments."}, "[2]": {"test_system": "Long-Evans rats", "experiment": "Oxycodone-induced conditioned place preference (CPP) in rats", "type": "in vivo, rat", "description": "CPP was tested in the place-conditioning apparatus (Med Associates, St Albans, VT) consisting of two side compartments (21×28 cm^2) and a central gray connecting area (21×12.5 cm^2); a sliding door separated each compartment from the connecting area. The two side compartments differed in wall color (black vs white), floor type (net vs grid), and illumination. Each rat was first exposed in the CPP apparatus for 15 minutes (preconditioning) and then followed by oxycodone CPP conditioning. […] Oxycodone CPP procedures consisted of 2 days of oxycodone (3 mg/kg, ip) conditioning in one compartment and 2 days of saline conditioning in another compartment, alternatively (e.g., oxycodone-saline-oxycodone-saline). The compartments paired with oxycodone or saline were counterbalanced. […] After oxycodone injection, animals were immediately confined in the assigned compartments for 40 minutes. To potentiate oxycodone CPP formation, animals received 4 days of oxycodone (3 mg/kg, ip, twice daily at 8:00 and 18:00) treatment at home cages. […] In the (Vehicle+vehicle) group, saline was paired with each compartment. Then 24 hours after the last saline or oxycodone conditioning injection, animals were placed in the same three-chamber CPP apparatus for 15 minutes and the time spent in each compartment was recorded. The CPP score was calculated by the time difference (seconds) that animal spent in drug-paired compartment versus saline-paired compartment."}, "[3]": {"test_system": "Long-Evans rats", "experiment": "Responding during saline substitution (extinction) testing in rats", "type": "in vivo, rat", "conditions": "5 or 15 mg/kg", "text": "Experiment 2. […] Following the completion of the self-administration testing, rats were allowed to self-administer oxycodone for another 4 daily sessions. […] Fifteen min after injection, they were placed in the chambers and allowed to lever-press for saline infusion for 3 hr."}, "[4]": {"test_system": "C57BL/6J mice", "conditions": "listed as (±)-29", "experimental": "Twenty-four male mice (22-25 g) with a C57BL/6J genetic background were purchased from the Charles River Laboratories (Raleigh, NC).\nLocomotor activity tests were conducted in open-field chambers (43×43×30 cm^3) (Accuscan Instruments, Inc., Columbus, OH, USA). […] On habituation days, the animals were moved to the test room, acclimated there for 10 min, and then placed in their assigned locomotor chambers. […] Then 15 min later, the animals were placed into the test chambers. Their locomotor activities were recorded every 20 min for 2 h using VersaMax version 3.0 software (Accuscan Instruments, Inc.). […] The locomotor activities were recorded for 2 h/day after each oxycodone injection. The locomotor behavioral data are expressed as means (±SEM). […] Posthoc Fisher's least significant difference was used for multiple comparisons. p<0.05 was considered statistically significant."}, "[5]": {"target": "opiate kappa receptor (Homo sapiens, UniProt P41145)", "sequence (P41145 whole entry)": "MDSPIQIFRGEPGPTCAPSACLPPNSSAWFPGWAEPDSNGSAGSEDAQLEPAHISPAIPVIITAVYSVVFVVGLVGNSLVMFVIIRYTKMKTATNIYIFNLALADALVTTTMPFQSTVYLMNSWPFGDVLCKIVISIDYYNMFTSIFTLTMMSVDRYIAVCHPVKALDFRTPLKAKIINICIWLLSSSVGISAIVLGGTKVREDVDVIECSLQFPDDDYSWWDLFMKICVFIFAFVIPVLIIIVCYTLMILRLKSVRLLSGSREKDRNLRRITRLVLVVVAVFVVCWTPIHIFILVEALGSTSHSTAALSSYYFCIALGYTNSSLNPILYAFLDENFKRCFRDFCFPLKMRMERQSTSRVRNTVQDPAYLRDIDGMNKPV", "experiment": "Binding to opiate kappa receptor"}, "[6]": {"test_system": "rats", "experiment": "Thermal response (hot plate) in rats", "type": "in vivo, rat", "conditions": "hot plate 52 °C, FIG. 13", "description": "Methods: Compound (±)-29 was administered 15 minutes before saline or oxycodone challenge. Tests were performed after the rat was placed inside a transparent circular cage on a hot plate (52±0.2° C.). Licking the hind paw or jumping was considered as a sign of thermal nociception. The rat was then immediately removed from the hot plate and the time latency was recorded."}},
  "note": "“Also recorded” adds a separate entry of the source.",
  "data": [
    {"smiles": "CCc1cc(Cl)c(OC)c(N2CCN(CC(O)CCNC(=O)c3cc4ccccc4[nH]3)CC2)c1", "note": "(racemic) [Compound 29, N-(4-(4-(3-chloro-5-ethyl-2-methoxyphenyl)piperazin-1-yl)-3-hydroxybutyl)-1H-indole-2-carboxamide]", "values": [
      {"measurement": "Ki", "setting": "[1]", "result": "17.1 ± 5.09", "unit": "µM"},
      {"measurement": "CPP produced by compound alone", "setting": "[2]; rats, 15 mg/kg alone", "result": "did not produce CPP"},
      {"measurement": "oxycodone induced CPP, posthoc comparison to (Vehicle+oxycodone) group", "setting": "[2]; rats, 15 mg/kg, p<0.05", "result": "significant reduction in oxycodone induced CPP"},
      {"measurement": "oxycodone-induced CPP", "setting": "[2]; rats, 5, 15 mg/kg ip, 15 min before each oxycodone injection (3 mg/kg ip), FIG. 10", "result": "dose-dependently attenuated oxycodone-induced CPP"},
      {"measurement": "oxycodone seeking during extinction testing", "setting": "[3]", "result": "inhibited oxycodone seeking during extinction testing"},
      {"measurement": "acute oxycodone-induced hyperactivity", "setting": "[4]; mice, 5, 15 mg/kg ip 15 min before oxycodone 4 mg/kg, day 2", "result": "dose-dependently inhibited oxycodone-induced hyperactivity"},
      {"measurement": "oxycodone prime-induced locomotor sensitization after 2 days of withdrawal", "setting": "[4]; mice, day 9, oxycodone 4 mg/kg challenge without pretreatment", "result": "long-lasting inhibition in oxycodone-induced increases in locomotion"},
      {"measurement": "binding to opiate kappa receptor", "setting": "[5]", "result": "does not bind"},
      {"measurement": "thermal response after oxycodone challenge (oxycodone induced analgesia)", "setting": "[6]; 30 minutes following oxycodone 2 mg/kg i.p.", "result": "no significant effects on animal's thermal response; also recorded: no effect on oxycodone induced analgesia"},
      {"measurement": "thermal response after saline challenge (analgesic effect of its own)", "setting": "[6]; 30 minutes following saline 1 ml/kg i.p.", "result": "no significant effects on animal's thermal response; also recorded: no analgesic effects of its own"}
    ]}
  ]
}
